Measurements published in patent US8318805B2, “Modulation of nitric oxide synthases by betaines” (priority 2004, dated 2012).
“And” between values parts separate entries of the source, which are not always exact repeats. Equal values may be shown once. Blank lines part the entries; values can stand above or below the compound they belong to.

Experiments:
[1] = test system: thrombus formation in mesenteric veinules or arterioles; assay: Laser-induced thrombosis in rat mesenteric circulation; type: in vivo, Wistar rats; conditions: for duration of embolisation / emboli / laser beams: oral 60 minutes before laser thrombosis
From the text: Male Wistar rats (200-270 gram) were used for the experiments. […] After the medial laparotomy the intestinal loop was placed on the microscope table. Vascular lesions were produced by Argon laser […] This shot causes a well limited lesion of the vascular endothelium (only few cells are destroyed) exposing the thrombogenetic under-layer of the sub-endothelium. The contact of blood with this surface triggers the adherence of platelets via glycoproteins Ib & IIb IIIa. This adherence of platelets is followed by their activation: they form pseudopods and secrete the content of their granules. As a consequence thrombus formation occurs within few seconds. This platelet rich thrombus rapidly enlarges under influence of blood flow, embolises (i.e. is disrupted and carried by the flow from the thrombogenic area) before a new thrombus being formed again on the injured surface. […] Up to four shots can be fired if no emboli (platelet thrombus) are readily appearing. The number of successive laser beams and emboli formed are then recorded. In the presence of an antithrombotic compound a higher number of laser shots are necessary to induce thrombus formation. Similarly, a smaller number of emboli (platelet thrombi) are formed as compared with controls and the duration of the embolisation is also shorter. […] Similarly, a higher number of emboli (platelet thrombi) are formed as compared with controls and the duration of the embolisation is also longer. Betaine is orally administrated to animals at 50 mg/kg, 60 minutes before laser thrombosis.

[2] = test system: whole blood platelet aggregation; assay: Whole blood aggregation, ADP 5 μM; type: in vivo, Wistar rats; conditions: oral
Experimental: Blood is sampled by intracardiac puncture on trisodium citrate solution (3, 8% sodium citrate/blood 1/9 vv) using the 2 syringes technique.
ADP 5 μM in final concentration is used as agonist. Amplitudes are expressed in ohms (Ω) and velocities in ohm/min (Ω/min)

[3] = test system: photochemically-induced brain ischemia; assay: Photochemically-induced (rose Bengal) focal cerebral ischemia on rats; type: in vivo, rat; conditions: for Red Ischemic Area, Excluding Blue Evan Penumbra / Weight of ischemic area: mean
From the text: The aim of this study was to evaluate the activity of Betaine on thrombus formation in a rat model of photochemically-induced brain ischemia. The method (11) is based on local free radical release exerted by filtered light acting on rose Bengal previously injected in animals. Free radicals are known to induce endothelial damage, followed by platelet aggregation, thrombus formation and vascular occlusion. Briefly, an optic fiber in close contact shone denuded intact skulls (diameter of the illuminated circle 5.4 mm, luminance at the entrance of optic fiber was 5.6×10^6 Ix). After turning on the lamp, an infusion through the caudal vein of a 5 mg/mL (w/v) solution of rose Bengal in saline was started. Two mL of the solution were administered at a flow rate of 0.1 mL/min. After 20 min, at the end of the infusion, the lamp was turned off. [table] Evan's Blue solution (2% w/v) in saline was intravenously injected (1 mL/rat), 18-20 h after the ischemia induction in order to reveal the BBB breakdown. The rats were sacrificed 20 min after Evan's Blue injections and their brains removed. The infarcted area was visually verified, photographed by digital camera and then weighed.

nitric oxide = assay: Nitric oxide production in healthy volunteers after single betaine ingestion (plasma, Griess reaction); type: in vivo, human; design: Conc. (nitric oxide) / Conc. (2) (nitric oxide): unit not given here
Experimental: Betaine is administrated at 75 mg/kg single oral dose at T0 to fastened healthy volunteers just after the basal blood sample. At T0 and T0+60 mn fresh blood samples are centrifuged to obtain plasma.
The samples are then tested for nitric oxide with the Griess reaction.

[4] = test system: fresh blood (Thromboelastograph); assay: TEG parameters after betaine oral administration in healthy volunteers; type: in vivo, human; conditions: for K / MA / R / α Angle: T0 + 60 mn after 75 mg/kg single oral dose
Experimental: Betaine is administrated at 75 mg/kg single oral dose at T0 to fastened healthy volunteers just after the basal blood sample. At T0 and T0+60 mn the fresh blood samples are immediately evaluated in the Thromboelastograph (TEG®—Haemoscope Corp.—Illinois).
R parameter corresponds to […] initial fibrin formation, and is functionally related to plasma clotting factors and clot formation.

total nitric oxide = assay: Nitric oxide plasma levels in healthy volunteers after repeated betaine ingestion; type: in vivo, human; design: Nitric oxide plasma levels Conc / Nitric oxide plasma levels Conc (×2): unit not given here; conditions: for Nitric oxide plasma levels Conc / Nitric oxide plasma levels Conc (×2): individual donors
Experimental: (§1) After obtaining the baseline blood samples (sample a) from fastened normal healthy volunteers (n=10), Betaine was repeatedly administered in daily doses of 6 g. (2×3) for 1 week. After obtaining the 1 week blood sample from fastened volunteers (sample b) Betaine was again administered orally at a dose of 3 g. and a third blood sample drawn after one hour (sample c). […] The blood samples were centrifuged and the separated platelet poor plasma was then aliquoted and frozen at −70° C. for subsequent analysis for nitric oxide (NO), tissue factor pathway inhibitor (TFPI) activity levels and global clotting assays.
(§2) The samples are identified for each donor as number of donor (1, 2, etc) followed by the letter of the sample (a, b, c).

[5] = test system: Tissue Factor Pathway Inhibitor (TFPI); assay: TFPI activity plasma levels in healthy volunteers after repeated betaine ingestion; type: in vivo, human; conditions: for TFPI ACTIVITY: individual donors
Experimental: as §1, §2

[6] = test system: Tissue Factor Pathway Inhibitor (TFPI); assay: TFPI concentration plasma levels in healthy volunteers after repeated betaine ingestion; type: in vivo, human; conditions: for TFPI CONCENTRATION: individual donors
Experimental: as §1, §2

[7] = test system: blood (rate of initial fibrin formation); assay: TEG at each blood draw during repeated betaine ingestion; type: in vivo, human; conditions: compared to the baseline values; 6 g daily for 1 week, then 3 g
Experimental: as §1

[8] = test system: Pulmonary Arterial Hypertension; assay: Betaine added to Bosentan in patients with Pulmonary Arterial Hypertension (PAP, heart rate, 6MWT); type: in vivo, human; conditions: after two weeks of anhydrous betaine 6 g/day bid added to Bosentan 125 mg bid
Experimental: Nine patients suffering from Pulmonary Arterial Hypertension and taking 125 mg Bosentan bid were randomly assigned to placebo (lactose monohydrate) 6 g/day bid (4 patients) or to anhydrous betaine 6 g/day bid (5 patients) during two weeks. They were assessed for haemodynamic variables and for 6 minutes walking test at inclusion and after the two weeks of medication with placebo or betaine. Pulmonary Artery Pressure (PAP) and Heart rate were non-invasively estimated by Doppler echocardiography method. 6MWT was performed on a treadmill.

[9] = test system: fresh blood (Thromboelastograph); assay: TEG parameters after betaine oral administration in healthy volunteers; type: in vivo, human; conditions: evaluated with TEG
[10] = Celebrex 10 mg + saline, individual rats
[11] = Celebrex 10 mg + saline, mean of 6 rats
[12] = ASA 50 mg/kg iv 30 min before ischemia induction, n = 5
[13] = ASA 200 mg/kg iv 30 min before ischemia induction, n = 10
[14] = Betaine 10 mg/kg sc 1 h before ischemia induction, n = 10
[15] = Betaine 10 mg/kg sc at the end of ischemia induction, n = 10, (*) P<0,05
[16] = plasma, Post = T0+60 mn after 75 mg/kg single oral dose, individual volunteers
[17] = healthy volunteers, 60 minutes after oral administration
[18] = mean T0 + 60 mn versus mean basal value
[19] = betaine oral administration, healthy volunteers (n=10)
[20] = sample b: fasted, after 6 g daily (2×3) for 1 week
[21] = sample c: one hour after a further 3 g oral dose following 1 week of 6 g daily
[22] = NS 398 5 mg + saline, individual rats
[23] = NS 398 5 mg + saline, mean of 6 rats

Compound: Cc1ccc(-c2cc(C(F)(F)F)nn2-c2ccc(S(N)(=O)=O)cc2)cc1 [Celebrex ®]
duration of embolisation [1, 10]: 4 (2×) and 5 (3×) and 9
emboli [1, 10]: 9 and 8 and 11 (2×) and 17 and 12
laser beams [1, 10]: 2 (3×) and 1 (3×)
duration of embolisation [1, 11]: 5.33
emboli [1, 11]: 11.33
laser beams [1, 11]: 1.5
amplitude [2, 10]: 13 Ω (3×) and 12 Ω and 14 Ω and 21 Ω
velocity [2, 10]: 8 Ω/min (2×) and 7 Ω/min (2×) and 13 Ω/min and 9 Ω/min
amplitude [2, 11]: 14.33 Ω
velocity [2, 11]: 8.67 Ω/min

Compound: CC(=O)Oc1ccccc1C(=O)O [ASA, Acetylsalicylic acid, reference compound]
Red Ischemic Area, Excluding Blue Evan Penumbra [3, 12]: 0.322 cm^2
Weight of ischemic area [3, 12]: 35.0 mg
Red Ischemic Area, Excluding Blue Evan Penumbra [3, 13]: 0.29 cm^2
Weight of ischemic area [3, 13]: 40 mg

Crossing of encephalic barrier ([3]; rat, after being present in blood stream): ability to cross encephalic barrier
Compound: C[N+](C)(C)CC(=O)O [Betaine, glycine betaine]
Red Ischemic Area, Excluding Blue Evan Penumbra [3, 14]: 0.335 cm^2
Weight of ischemic area [3, 14]: 36 mg
Red Ischemic Area, Excluding Blue Evan Penumbra [3, 15]: 0.28 cm^2
Weight of ischemic area [3, 15]: 25 mg
Efficacy in the stroke model compared with Aspirin ([3]; rat, Betaine 10 mg/kg sc): better efficacy than Aspirin
Nitric oxide levels (nitric oxide; oral administration, all tested volunteers): markedly increased
Conc. (2) (nitric oxide) (nitric oxide; [16]): 41.81 and 24.14 and 65.53 and 114.21 and 70.19 and 72.51
Conc. (nitric oxide) (nitric oxide; [16]): 20.91 and 12.07 and 32.77 and 57.42 and 35.09 and 36.26
K ([4]; individual volunteers): 2.5 mn and 1.8 mn and 2.0 mn and 1.3 mn (2×) and 2.7 mn
MA ([4]; individual volunteers): 52.6 mm and 65.0 mm and 56.8 mm and 65.8 mm and 61.9 mm and 70.1 mm
R ([4]; individual volunteers): 5.8 mn and 7.3 mn and 7.4 mn and 4.8 mn and 8.4 mn and 6.3 mn
α Angle ([4]; individual volunteers): 57.5 ° and 65.5 ° and 64.2 ° and 71.9 ° and 66.9 ° and 70.4 °
K ([4]; mean of 6 volunteers): 1.9 mn
MA ([4]; mean of 6 volunteers): 62.0 mm
R ([4]; mean of 6 volunteers): 6.8 mn
α Angle ([4]; mean of 6 volunteers): 66.1 °
Blood coagulation (R parameter) [4, 17]: significantly prolonged
Other TEG parameters [4, 17]: remained stable
Δ K [4, 18]: −8%
Δ MA [4, 18]: +3%
Δ R [4, 18]: +45%
Δ α Angle [4, 18]: +1%
Nitric oxide levels (total nitric oxide; [19]): increased
Nitric oxide plasma levels Conc (total nitric oxide; [20]): 29.11 and 28.89 and 9.11 and 26.28 and 20.2 and 22.59 and 13.24 and 21.5 and 24.11 and 14.11
Nitric oxide plasma levels Conc (×2) (total nitric oxide; [20]): 58.217 and 57.783 and 18.217 and 52.565 and 40.391 and 45.174 and 26.478 and 43 and 48.217 and 28.217
Nitric oxide plasma levels Conc (total nitric oxide; [21]): 14.54 and 41.07 and 39.96 and 27.8 and 26.72 and 22.8 and 25.85 and 11.93 and 31.28 and 27.15
Nitric oxide plasma levels Conc (×2) (total nitric oxide; [21]): 29.087 and 82.13 and 79.957 and 55.609 and 53.435 and 45.609 and 51.696 and 23.87 and 62.565 and 54.304
TFPI activity plasma levels [5, 19]: increased
TFPI ACTIVITY [5, 20]: 3.30 U/ml and 181.61 ng/ml and 2.74 U/ml and 150.83 ng/ml and 2.66 U/ml and 146.34 ng/ml and 2.30 U/ml and 126.36 ng/ml and 2.17 U/ml and 119.46 ng/ml and 4.66 U/ml and 256.55 ng/ml and 3.39 U/ml and 186.37 ng/ml and 2.99 U/ml and 164.44 ng/ml and 3.52 U/ml and 193.76 ng/ml and 4.43 U/ml and 243.59 ng/ml
TFPI ACTIVITY [5, 21]: 3.60 U/ml and 197.99 ng/ml and 2.19 U/ml and 120.49 ng/ml and 1.71 U/ml and 94.20 ng/ml and 2.74 U/ml and 150.83 ng/ml and 2.98 U/ml and 163.73 ng/ml and 4.53 U/ml and 248.91 ng/ml and 3.65 U/ml and 200.57 ng/ml and 3.23 U/ml and 177.73 ng/ml and 3.45 U/ml and 189.62 ng/ml and 4.03 U/ml and 221.52 ng/ml
TFPI concentration plasma levels [6, 19]: increased
TFPI CONCENTRATION [6, 20]: 59.45 ng/mL and 66.23 ng/mL and 84.35 ng/mL and 47.14 ng/mL and 64.57 ng/mL and 76.40 ng/mL and 93.34 ng/mL and 47.28 ng/mL and 70.31 ng/mL and 89.81 ng/mL
TFPI CONCENTRATION [6, 21]: 86.98 ng/mL and 70.38 ng/mL and 76.12 ng/mL and 70.52 ng/mL and 82.62 ng/mL and 89.19 ng/mL and 87.74 ng/mL and 58.62 ng/mL and 63.25 ng/mL and 83.38 ng/mL
TEG reaction time, i.e. rate of initial fibrin formation [7]: marked prolongation
Heart rate 2 ([8]; individual patients): 84 beats/minute and 67 beats/minute and 74 beats/minute and 69 beats/minute and 72 beats/minute
Week 2 ECO 2 PAP ([8]; individual patients): 71 mmHg and 60 mmHg and 80 mmHg and 65 mmHg and 58 mmHg
6MWT 2 ([8]; mean of 5 patients): 413 m
Heart rate 2 ([8]; mean of 5 patients): 73.2 beats/minute
Week 2 ECO 2 PAP ([8]; mean of 5 patients): 66.8 mmHg
6MWT 2 ([8]; treadmill, individual patients): 380 m and 504 m and 360 m and 411 m and 410 m
Number of laser beams, number of emboli and duration of embolisation relative to saline control values ([1]; Betaine co-administration with selective COX 2 inhibitors): normalise
Protection from selective COX 2 inhibitors thrombogenicity ([1]; rats, Betaine co-administered orally at 50 mg/kg): clearly protects animals from selective COX 2 inhibitors thrombogenicity
R prolongation compared with Lovenox in post orthopaedic surgery patients [9]: as potent as Lovenox® anticoagulation

Compound: CS(=O)(=O)Nc1ccc([N+](=O)[O-])cc1OC1CCCCC1 [NS 398]
duration of embolisation [1, 22]: 5 (2×) and 4 (2×) and 3 and 2
emboli [1, 22]: 11 and 9 (2×) and 10 and 7 and 8
laser beams [1, 22]: 2 (5×) and 1
duration of embolisation [1, 23]: 3
emboli [1, 23]: 9
laser beams [1, 23]: 1.83
amplitude [2, 22]: 9 Ω (2×) and 10 Ω and 2 Ω and 12 Ω and 6 Ω
velocity [2, 22]: 9 Ω/min and 7 Ω/min (4×) and 5 Ω/min
amplitude [2, 23]: 8 Ω
velocity [2, 23]: 7 Ω/min
